Key:
Type in all cases: cell-based
KRAS G12D = target: T1, KRAS G12D (Homo sapiens, UniProt P01116, G12D); experiment: KRAS G12D HiBit assay; conditions: AsPc-1-KRAS (G12D)-HiBit-KI cell, compound treatment for 24 hours, absolute DC50
T1 construct: AsPc-1-KRAS (G12D)-HiBit-KI cell (Pharmaron); host or cells: AsPc-1-KRAS (G12D)-HiBit-KI cells (HiBiT knock-in at the endogenous KRAS locus)
Method in brief: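 Cells were treated for 24 h with compounds in a 3-fold, 10-point dilution series from a 0.3 mM DMSO stock, then equilibrated 15 min at room temperature. KRAS G12D HiBiT levels were read by luminescence after lytic Nano-Glo HiBiT reagent with LgBiT; inhibition calculated relative to 0.1% DMSO high control.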

KRAS = target: T2, KRAS (Homo sapiens, UniProt P01116); experiment: KRASamp MSD assay; conditions: KE39 (KRAS amplified) cells, treated with test compounds for 24 hr, MSD readout of KRAS degradation
T2 construct: endogenous in cells; host or cells: KE39 (KRAS amplified) cells
T2 sequence (P01116 1-188 isoform P01116-2): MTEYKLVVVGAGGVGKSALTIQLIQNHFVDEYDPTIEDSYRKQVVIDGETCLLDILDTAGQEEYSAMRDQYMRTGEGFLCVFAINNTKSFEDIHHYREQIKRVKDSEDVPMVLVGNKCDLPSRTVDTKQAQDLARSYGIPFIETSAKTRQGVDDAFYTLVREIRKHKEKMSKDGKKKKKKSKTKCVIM
Method in brief: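 KRAS-amplified KE39 cells treated with compound for 24 hr, then lysed in RIPA buffer with protease/phosphatase inhibitors. KRAS protein measured by MSD sandwich immunoassay against a recombinant WT KRAS standard curve; DC50 derived from curve fitting of degradation.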

KRAS G12V = target: T3, KRAS G12V (Homo sapiens, UniProt P01116, G12V); experiment: KRAS G12V HiBit assay; conditions: SW620-KRAS (G12V)-HiBit-KI cells, compound treatment for 24 hours
T3 construct: SW620-KRAS (G12V)-HiBit-KI cell (Pharmaron); host or cells: SW620-KRAS (G12V)-HiBit-KI cells (HiBiT knock-in at the endogenous KRAS locus)
T3 sequence (P01116 1-188 isoform P01116-2 G12V): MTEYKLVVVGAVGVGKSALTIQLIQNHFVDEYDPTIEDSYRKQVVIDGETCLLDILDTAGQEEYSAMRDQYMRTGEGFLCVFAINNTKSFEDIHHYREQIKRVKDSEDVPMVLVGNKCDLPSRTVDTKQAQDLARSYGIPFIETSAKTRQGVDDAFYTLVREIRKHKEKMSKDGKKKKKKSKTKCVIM
Method in brief: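 HiBiT-tagged KRAS G12V cells treated 24 h with compound in a 3-fold, 10-point series (0.3 mM DMSO stock); lytic HiBiT reagent with LgBiT added after 15 min room-temperature equilibration. Degradation calculated against 0.1% DMSO high control.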

[1] = numeric bounds given in place of class symbols

T1 sequence (P01116 1-188 isoform P01116-2 G12D): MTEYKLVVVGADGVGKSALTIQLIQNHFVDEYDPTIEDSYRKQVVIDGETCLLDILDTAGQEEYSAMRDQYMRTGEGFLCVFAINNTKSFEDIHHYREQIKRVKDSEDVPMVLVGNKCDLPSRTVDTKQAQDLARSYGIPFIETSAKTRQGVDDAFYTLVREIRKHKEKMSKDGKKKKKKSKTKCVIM

Structure (SMILES)	DC50 (KRAS G12D; [1]) [µM]	DC50 (KRAS) [µM]	DC50 (KRAS G12V; class symbols) [µM]	DC50 (KRAS G12D; class symbols) [µM]	DC50 (KRAS G12V; numeric bounds) [µM]
C#Cc1c(F)ccc2cc(O)cc(-c3ncc4c(N5CCC[C@@](C)(O)C5)nc(OC[C@]56CCCN5[C@@H](COC(=O)N5CCC(CN7CCC(c8ccc9c(c8)n(C)c(=O)n9C8CCC(=O)NC8=O)CC7)CC5)CC6)nc4c3F)c12 (stereo partly drawn) [Compound 126, ((3R,7aR)-7a-(((7-(8-Ethynyl-7-fluoro-3-hydroxynaphthalen-1-yl)-8-fluoro-4-((R)-3-hydroxy-3-methylpiperidin-1-yl)pyrido[4,3-d]pyrimidin-2-yl)oxy)methyl)hexahydro-1H-pyrrolizin-3-yl)methyl 4-((4-(1-(2,6-dioxopiperidin-3-yl)-3-methyl-2-oxo-2,3-dihydro-1H-benzo[d]imidazol-5-yl)piperidin-1-yl)methyl) piperidine-1-carboxylate]	> 0.0383	< 0.001	< 0.01		
C#Cc1c(F)ccc2cc(O)cc(-c3ncc4c(N5CCC[C@@](C)(O)C5)nc(OC[C@@]56CCCN5[C@H](COC(=O)N5CCC(COC7CN(c8ccc9c(c8)n(C)c(=O)n9C8CCC(=O)NC8=O)C7)CC5)CC6)nc4c3F)c12 (stereo partly drawn) [Compound 132]		0.001 to 0.01	< 0.01	< 0.1	
C#Cc1c(F)ccc2cc(O)cc(-c3ncc4c(N5CCC[C@@](C)(O)C5)nc(OC[C@]56CCCN5[C@H](COC(=O)N5CCC(CN7CCC(c8ccc9c(c8)n(C)c(=O)n9C8CCC(=O)NC8=O)CC7)CC5)CC6)nc4c3F)c12 (stereo partly drawn) [Compound 134]		< 0.001	< 0.01	< 0.1	
C#Cc1c(F)ccc2cccc(-c3ncc4c(N5CCC[C@@](C)(O)C5)nc(OC[C@@]56CCCN5[C@H](COC(=O)N5CCC(CN7CCC(c8cccc9c8n(C)c(=O)n9C8CCC(=O)NC8=O)CC7)CC5)CC6)nc4c3F)c12 (stereo partly drawn) [Compound 137]		0.001 to 0.01		0.1 to 0.3	> 0.0757
C#Cc1c(F)ccc2cc(O)cc(-c3ncc4c(N5CCC[C@@](C)(O)C5)nc(OC[C@@]56CCCN5[C@@H](COC(=O)N5CCC(CN7CCC(c8ccc9c(c8)n(C)c(=O)n9C8CCC(=O)NC8=O)CC7)CC5)CC6)nc4c3F)c12 (stereo partly drawn) [Compound 140]		< 0.001		< 0.1	> 0.0389
C#Cc1c(F)ccc2cccc(-c3ncc4c(N5CCC[C@@](C)(O)C5)nc(OC[C@]56CCCN5[C@H](COC(=O)N5CCC(CN7CCC(c8ccc9c(c8)n(C)c(=O)n9C8CCC(=O)NC8=O)CC7)CC5)CC6)nc4c3F)c12 (stereo partly drawn) [Compound 141]	> 0.1	< 0.001			> 0.0792
CCc1cccc2cc(O)cc(-c3ncc4c(N5CCC[C@@](C)(O)C5)nc(OC[C@@]56CCCN5[C@H](COC(=O)N5CCC(CN7CCC(c8ccc9c(c8)n(C)c(=O)n9C8CCC(=O)NC8=O)CC7)CC5)CC6)nc4c3F)c12 (stereo partly drawn) [Compound 145]		0.001 to 0.01	< 0.01	< 0.1	
CCc1c(F)ccc2cc(O)cc(-c3ncc4c(N5CCC[C@@](C)(O)C5)nc(OC[C@@]56CCCN5[C@H](COC(=O)c5ccc(CN7CCC(c8ccc9c(c8)n(C)c(=O)n9C8CCC(=O)NC8=O)CC7)cc5)CC6)nc4c3F)c12 (stereo partly drawn) [Compound 154]		< 0.001	< 0.01	< 0.1	
C#Cc1c(F)ccc2cc(O)cc(-c3ncc4c(N5CCC[C@@](C)(O)C5)nc(OC[C@@]56CCCN5[C@H](COC(=O)N5CCC(OC7CCN(c8ccc9c(c8)n(C)c(=O)n9C8CCC(=O)NC8=O)CC7)CC5)CC6)nc4c3F)c12 (stereo partly drawn) [Compound 155, ((3S,7aS)-7a-(((7-(8-Ethynyl-7-fluoro-3-hydroxynaphthalen-1-yl)-8-fluoro-4-((R)-3-hydroxy-3-methylpiperidin-1-yl)pyrido[4,3-d]pyrimidin-2-yl)oxy)methyl)hexahydro-1H-pyrrolizin-3-yl)methyl 4-((1-(1-(2,6-dioxopiperidin-3-yl)-3-methyl-2-oxo-2,3-dihydro-1H-benzo[d]imidazol-5-yl)piperidin-4-yl)oxy)piperidine-1-carboxylate]		< 0.001	< 0.01	< 0.1	
CCc1c(F)ccc2cc(O)cc(-c3ncc4c(N5CCC[C@@](C)(O)C5)nc(OC[C@@]56CCCN5[C@H](COC(=O)N5CCC(F)(CN7CCC(c8ccc9c(c8)n(C)c(=O)n9C8CCC(=O)NC8=O)CC7)CC5)CC6)nc4c3F)c12 (stereo partly drawn) [Compound 156, ((3S,7AS)-7a-(((7-(8-ethyl-7-fluoro-3-hydroxynaphthalen-1-yl)-8-fluoro-4-((R)-3-hydroxy-3-methylpiperidin-1-yl)pyrido[4,3-d]pyrimidin-2-yl)oxy)methyl)hexahydro-1H-pyrrolizin-3-yl)methyl 4-((4-(1-(2,6-dioxopiperidin-3-yl)-3-methyl-2-oxo-2,3-dihydro-1H-benzo[d]imidazol-5-yl)piperidin-1-yl)methyl)-4-fluoropiperidine-1-carboxylate]		< 0.001	< 0.01	< 0.1	
CCc1c(F)ccc2cc(O)cc(-c3ncc4c(N5CCC[C@@](C)(O)C5)nc(OC[C@@]56CCCN5[C@H](COC(=O)N5CCC(C)(CN7CCC(c8ccc9c(c8)n(C)c(=O)n9C8CCC(=O)NC8=O)CC7)CC5)CC6)nc4c3F)c12 (stereo partly drawn) [Compound 157, ((3S,7aS)-7a-(((7-(8-Ethyl-7-fluoro-3-hydroxynaphthalen-1-yl)-8-fluoro-4-((R)-3-hydroxy-3-methylpiperidin-1-yl)pyrido[4,3-d]pyrimidin-2-yl)oxy)methyl)hexahydro-1H-pyrrolizin-3-yl)methyl 4-((4-(1-(2,6-dioxopiperidin-3-yl)-3-methyl-2-oxo-2,3-dihydro-1H-benzo[d]imidazol-5-yl)piperidin-1-yl)methyl)-4-methylpiperidine-1-carboxylate]	> 0.1	< 0.001	< 0.01		
C#Cc1c(F)ccc2cc(O)cc(-c3ncc4c(N5CCC[C@@](C)(O)C5)nc(OC[C@@]56CCCN5[C@H](COC(=O)N5CCC7(CC5)CC(N5CCC(c8ccc9c(c8)n(C)c(=O)n9C8CCC(=O)NC8=O)CC5)C7)CC6)nc4c3F)c12 (stereo partly drawn) [Compound 158, ((3S,7aS)-7a-(((7-(8-Ethynyl-7-fluoro-3-hydroxynaphthalen-1-yl)-8-fluoro-4-((R)-3-hydroxy-3-methylpiperidin-1-yl)pyrido[4,3-d]pyrimidin-2-yl)oxy)methyl)hexahydro-1H-pyrrolizin-3-yl)methyl-2-(4-(1-(2,6-dioxopiperidin-3-yl)-3-methyl-2-oxo-2,3-dihydro-1H-benzo[d]imidazol-5-yl)piperidin-1-yl)-7-azaspiro[3.5]nonane-7-carboxylate]		< 0.001	< 0.01	< 0.1	
CCc1c(F)ccc2cc(O)cc(-c3ncc4c(N5CCC[C@@](C)(O)C5)nc(OC[C@@]56CCCN5[C@H](COC(=O)N5CCC7(CC5)CC(N5CCC(c8ccc9c(c8)n(C)c(=O)n9C8CCC(=O)NC8=O)CC5)C7)CC6)nc4c3F)c12 (stereo partly drawn) [Compound 159, ((3S,7aS)-7a-(((7-(8-Ethyl-7-fluoro-3-hydroxynaphthalen-1-yl)-8-fluoro-4-((R)-3-hydroxy-3-methylpiperidin-1-yl)pyrido[4,3-d]pyrimidin-2-yl)oxy)methyl)hexahydro-1H-pyrrolizin-3-yl)methyl2-(4-(1-(2,6-dioxopiperidin-3-yl)-3-methyl-2-oxo-2,3-dihydro-1H-benzo[d]imidazol-5-yl)piperidin-1-yl)-7-azaspiro[3.5]nonane-7-carboxylate]		< 0.001	< 0.01	< 0.1	
